These results are taken from patent publication US4374144A, “β-Lactam compounds, their preparation and use” (Beecham Group Limited, priority 1978, dated 1983).

In general, MIC refers to the least concentration at which growth counts as inhibited.

One assay deals with Citrobacter freundii E8. In words: MIC, DST agar + 10% horse blood. The format is cell-based. Here is the method: (§1) The minimum inhibitory concentrations (MIC) of certain compounds of the invention were determined against a range of organisms.
(§2) of 0.001 ml of a 10^-2 dilution for Grampositive bacteria or a
(§3) 10^-4 dilution for Gramnegative bacteria).

Another assay has as its system Proteus mirabilis C977. In words: MIC, DST agar + 10% horse blood. The format is cell-based. The protocol:
as §1, §2, §3

For another assay, the system named is Staph. aureus Oxford. In words: MIC, DST agar + 10% horse blood. Format: cell-based. To be noted: Staphylococcus aureus. The protocol:
as §1, §2, §3

Assay [1] concerns Streptococcus pyogenes CN10. Description: MIC, DST agar + 10% horse blood. Format: cell-based. Here is the method: as §1, §2, §3
Another assay relates to Staph. aureus Russell. In words: MIC, DST agar + 10% horse blood. The format is cell-based. To be noted: Staphylococcus aureus. Here is the method:
as §1, §2, §3

In a further assay the test system is Bacillus subtilis A. In words: MIC, DST agar + 10% horse blood. Format: cell-based. Here is the method:
as §1, §2, §3

The test system of a further assay is Klebsiella aerogenes A. Description: MIC, DST agar + 10% horse blood. The format is cell-based. Here is the method: as §1, §2, §3
Assay [2] has as its system Salmonella typhimurium CT10. Description: MIC, DST agar + 10% horse blood. The format is cell-based. The note with it: Salmonella enterica. The protocol: as §1, §2, §3
Another assay concerns E. coli JT39. In words: MIC, DST agar + 10% horse blood. To be noted: Escherichia coli. Format: cell-based. The protocol: as §1, §2, §3
The subject of the next assay is E. coli 0111. In words: MIC, DST agar + 10% horse blood. The format is cell-based. The note with it: Escherichia coli. Here is the method: as §1, §2, §3
The test system of a further assay is Shigella sonnei MB11967. Description: MIC, DST agar + 10% horse blood. Format: cell-based. The protocol: as §1, §2, §3
Assay [3] has as its target β-Lactamase from Klebsiella aerogenes E70. In words: β-Lactamase inhibition, chromogenic cephalosporin substrate. Format: biochemical. The note with it: 5 min preincubation, pH 7.3, 37° C. Here is the method:
(§4) I50 values for certain compounds of the invention against various β-lactamases were determined as follows:
(§5) Enzyme (0.2 ml) and inhibitor solution (10 μl) were incubated at pH 7.3, 37° C. for 5 minutes. Substrate (0.2 ml), which was the chromogenic cephalosporin described by O'Callaghan, Morris, Kirby and Shingler, Antimicrobial Agents and Chemotherapy, vol. 1, no. […] After a further five minutes (37° C. at pH 7.3) the reaction was diluted with 1.6 ml of water and absorbance at 482 nm recorded instantly. […] Levels of inhibition were measured against a control reaction with no added inhibitor (10 μl buffer).

The target in assay [4] is T1, β-Lactamase from E. coli JT4 (Escherichia coli, UniProt P62593).
T1 construct: β-Lactamase from; endogenous in cells; host or cells: E. coli JT4
T1 sequence (P62593 24-286 limits assumed): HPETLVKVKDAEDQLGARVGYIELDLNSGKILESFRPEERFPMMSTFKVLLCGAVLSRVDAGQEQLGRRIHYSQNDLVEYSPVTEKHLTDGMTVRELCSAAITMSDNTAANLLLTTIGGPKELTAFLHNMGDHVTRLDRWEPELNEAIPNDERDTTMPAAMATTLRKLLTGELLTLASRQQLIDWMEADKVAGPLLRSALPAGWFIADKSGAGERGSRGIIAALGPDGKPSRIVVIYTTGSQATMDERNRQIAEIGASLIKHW
The assay is described as above. The note with it: 5 min preincubation, pH 7.3, 37° C., read-out: I50 (converted). Format: biochemical. The protocol: as §4, §5

Assay [5] has as its target T2, β-Lactamase from Enterobacter cloacae P99 (Enterobacter cloacae, UniProt P05364).
T2 construct: β-Lactamase from; endogenous in cells; host or cells: Enterobacter cloacae P99
The description is as above. The note with it: 5 min preincubation, pH 7.3, 37° C., read-out: I50 (converted). The format is biochemical. Here is the method: as §4
(§6) Enzyme (0.2 ml) and inhibitor solution (10 μl) were incubated at pH 7.3, 37° C. for 5 minutes. Substrate (0.2 ml), which was the chromogenic cephalosporin described by O'Callaghan, Morris, Kirby and Shingler, Antimicrobial Agents and Chemotherapy, vol. 1, no. 4, 283-288 (1972), was added to give a final concentration of 250 μg/ml. After a further five minutes (37° C. at pH 7.3) the reaction was diluted with 1.6 ml of water and absorbance at 482 nm recorded instantly. The enzyme level was sufficient to hydrolyse 75% of the substrate in 5 minutes. Levels of inhibition were measured against a control reaction with no added inhibitor (10 μl buffer). I50 values quoted are the concentrations required to give 50% inhibition of substrate hydrolysis under the conditions described and are the concentrations of inhibitor present with the enzyme prior to the addition of the substrate.

Assay [6] addresses T3, β-Lactamase from Staphylococcus aureus Russell (Staphylococcus aureus, UniProt P00807).
T3 construct: β-Lactamase from; endogenous in cells; host or cells: Staphylococcus aureus Russell
The description is as above. To be noted: 5 min preincubation, pH 7.3, 37° C., read-out: I50 (converted). Format: biochemical. Here is the method:
as §4, §6

Where [7] appears, read: E. coli JT39, inoculum 0.001 ml of 10^-4 dilution, read-out: MIC.
The mark [8] stands for this setting: E. coli 0111, inoculum 0.001 ml of 10^-4 dilution, read-out: MIC.
Where [9] appears, read: Shigella sonnei MB11967, inoculum 0.001 ml of 10^-4 dilution, read-out: MIC.
The mark [10] stands for this setting: Citrobacter freundii E8, inoculum 0.001 ml of 10^-4 dilution, read-out: MIC.
Where [11] appears, read: Proteus mirabilis C977, inoculum 0.001 ml of 10^-4 dilution, read-out: MIC.
Where [12] appears, read: Staph. aureus Oxford, inoculum 0.001 ml of 10^-2 dilution, read-out: MIC.
Setting [13] is: Streptococcus pyogenes CN10, inoculum 0.001 ml of 10^-2 dilution, read-out: MIC.
Where [14] appears, read: Staph. aureus Russell, inoculum 0.001 ml of 10^-2 dilution, read-out: MIC.
[15] abbreviates: Klebsiella aerogenes A, inoculum 0.001 ml of 10^-4 dilution, read-out: MIC.
Where [16] appears, read: Salmonella typhimurium CT10, inoculum 0.001 ml of 10^-4 dilution, read-out: MIC.

Where two headings read alike, the source gives them in different places. A value given as a limit tells only on which side of the number the result lay.

T2 sequence (P05364 21-381): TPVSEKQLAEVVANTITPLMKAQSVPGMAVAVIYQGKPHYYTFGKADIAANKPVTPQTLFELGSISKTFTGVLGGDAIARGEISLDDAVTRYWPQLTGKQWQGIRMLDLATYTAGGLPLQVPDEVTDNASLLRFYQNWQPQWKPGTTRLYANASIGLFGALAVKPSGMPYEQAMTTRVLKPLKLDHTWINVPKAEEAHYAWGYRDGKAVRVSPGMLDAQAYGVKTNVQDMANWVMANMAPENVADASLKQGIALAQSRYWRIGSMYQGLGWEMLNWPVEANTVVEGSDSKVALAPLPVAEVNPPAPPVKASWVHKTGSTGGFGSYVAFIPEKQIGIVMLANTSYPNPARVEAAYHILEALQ
T3 sequence (P00807 25-281): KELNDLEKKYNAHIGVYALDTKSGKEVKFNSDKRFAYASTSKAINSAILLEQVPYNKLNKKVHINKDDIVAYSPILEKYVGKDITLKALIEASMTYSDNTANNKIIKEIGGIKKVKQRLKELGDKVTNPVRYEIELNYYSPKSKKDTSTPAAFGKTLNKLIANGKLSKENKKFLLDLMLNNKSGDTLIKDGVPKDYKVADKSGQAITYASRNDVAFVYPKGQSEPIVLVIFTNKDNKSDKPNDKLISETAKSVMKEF

As to `CC(=O)N/C=C\SC1=C(C(=O)[O-])N2C(=O)[C@H]([C@H](C)O)[C@H]2C1.[Na+]`, the MIC came to 2.5 µg/mL in the assay with Citrobacter freundii E8 (Citrobacter freundii, E8); 25 µg/mL in the assay with Proteus mirabilis C977 (Proteus mirabilis, C977); 0.5 µg/mL with Staph. aureus Oxford; 0.5 µg/mL in assay [1] (Streptococcus pyogenes, CN10); 0.5 µg/mL in the assay on Staph. aureus Russell; 5 µg/mL in the assay on Bacillus subtilis A (Bacillus subtilis). Moreover, the MIC is 5 µg/mL in the assay on Klebsiella aerogenes A (Klebsiella aerogenes); 5 µg/mL in [2] (TYPHIMURIUM); 10 µg/mL in the assay with E. coli JT39 (JT39); 5 µg/mL with E. coli 0111 (0111); 10 µg/mL in the assay on Shigella sonnei MB11967 (Shigella sonnei, MB11967). Besides, the I50 in assay [3] stood at 0.1 µg/mL. Also, the IC50 in assay [4] was 150 nM; in assay [5], 17.9 nM; in assay [6], around 8970 nM.
For the molecule `CC(=O)N/C=C\SC1=C(C(=O)[O-])N2C(=O)[C@@H]([C@H](C)O)[C@H]2C1.[Na+]` [Example 5, Sodium (5R, 6R)-3-[(Z)-2-acetamidoethenylthio]-6-[(S)-1-hydroxyethyl]-7-oxo-1-azabicyclo[3.2.0]hept-2-ene-2-carboxylate], the minimal inhibitory concentration (MIC) is 1 µg/mL in the assay on Citrobacter freundii E8 (Citrobacter freundii, E8); 1 µg/mL in the assay with Proteus mirabilis C977 (Proteus mirabilis, C977); 0.2 µg/mL with Staph. aureus Oxford; at most 0.02 µg/mL in [1] (Streptococcus pyogenes, CN10); 0.5 µg/mL in the assay on Staph. aureus Russell; 0.1 µg/mL in the assay with Bacillus subtilis A (Bacillus subtilis). Moreover, the MIC turned out to be 1 µg/mL in the assay on Klebsiella aerogenes A (Klebsiella aerogenes); 1 µg/mL in [2] (TYPHIMURIUM); 10 µg/mL in the assay on E. coli JT39 (setting [7]); 1 µg/mL in the assay with E. coli 0111 (setting [8]); 1 µg/mL in the assay on Shigella sonnei MB11967 (setting [9]).
On to `CC(=O)N/C=C\SC1=C(C(=O)OCc2ccc([N+](=O)[O-])cc2)N2C(=O)[C@H]([C@H](C)O)[C@H]2C1` [Example 2, p-Nitrobenzyl (5R, 6S)-3-[(Z)-2-acetamidoethenylthio]-6-[(S)-1-hydroxyethyl]-7-oxo-1-azabicyclo[3.2.0]hept-2-ene-2-carboxylate], for which the MIC is 5 µg/mL with Citrobacter freundii E8 (setting [10]); 5 µg/mL in the assay on Proteus mirabilis C977 (setting [11]); 0.5 µg/mL in the assay on Staph. aureus Oxford (setting [12]); at most 0.1 µg/mL in [1] (setting [13]); 1.2 µg/mL in the assay on Staph. aureus Russell (setting [14]); 0.5 µg/mL in the assay on Bacillus subtilis A (Bacillus subtilis). Also, the MIC in the assay with Klebsiella aerogenes A (setting [15]) is 2.5 µg/mL; in assay [2] (setting [16]) it was 2.5 µg/mL; with E. coli JT39 (setting [7]), above 50 µg/mL; in the assay on E. coli 0111 (setting [8]), 2.5 µg/mL; in the assay with Shigella sonnei MB11967 (setting [9]) it was 2.5 µg/mL.
As for `CC(=O)N/C=C\SC1=C(C(=O)O)N2C(=O)[C@@H]([C@H](C)OS(=O)(=O)O)[C@H]2C1` [Example 8, Disodium (5R, 6R)-3-[(Z)-2-acetamidoethenylthio]-6-[(S)-1-sulphatoethyl]-7-oxo-1-azabcicyclo[3.2.0]hept-2-ene-2-carboxylate], the MIC in the assay on Citrobacter freundii E8 (setting [10]) was determined as 1.2 µg/mL; in the assay with Proteus mirabilis C977 (setting [11]) it was 1.2 µg/mL; in the assay on Staph. aureus Oxford (setting [12]), 1.2 µg/mL; in assay [1] (setting [13]), 0.2 µg/mL; with Staph. aureus Russell (setting [14]), 1.2 µg/mL; in the assay with Bacillus subtilis A (Bacillus subtilis A, inoculum 0.001 ml of 10^-2 dilution, read-out: MIC), 1.2 µg/mL. The MIC in the assay with Klebsiella aerogenes A (setting [15]) stood at 0.5 µg/mL; in assay [2] (setting [16]), 1.2 µg/mL; with E. coli JT39 (setting [7]), 2.5 µg/mL; with E. coli 0111 (setting [8]) it was 1.2 µg/mL; with Shigella sonnei MB11967 (setting [9]) it was 1.2 µg/mL. The IC50 in assay [5] is 7.65 nM; in assay [6], 637 nM.
